# Patent publication US7385026B1, “Modified ghrelin polypeptides” (priority 1999, dated 2008)
# “And” between values parts separate entries of the source, which are not always exact repeats. Equal values may be shown once.
# Key:
# [1] = biological target: T1, rat GHS-receptor (GHR-R) (Rattus norvegicus, UniProt O08725); assay: Ca-releasing activity (increase in intracellular calcium) in CHO-GHSR62 cells, FLIPR; type: cell-based
# T1 construct: A full-length cDNA for rat GHR-R was obtained by RT-PCR; expressed in transfected cells
# In short: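 CHO cells stably expressing full-length rat GHS-R (CHO-GHSR62) were cultured 12–15 h, loaded with 4 μM Fluo4 for 1 h and washed with Hank's BSS containing 20 mM Hepes and 2.5 mM probenecid. Ca-releasing activity of ghrelin peptides, fragments or derivatives was read by FLIPR as the fluorescence change after sample addition.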
# [2] = test system: IGS-SD strain rats; assay: GH-releasing activity of long-chain ghrelin derivatives in rat (plasma GH 15 min after i.v.); type: in vivo
# Procedure: Fifteen minutes after administration, plasma was collected, and the concentration of GH in plasma was measured by radioimmunoassay (Biotrak/Amersham). Separately, 0.2% bovine serum albumin (BSA)-physiological saline, 6 nmol/kg rGhrelin and hGhrelin, or 80 nmol/kg Ipamorelin (Compound 80) was administered into other rats as the control, respectively, and the concentrations of GH in plasma in 15 minutes after administration were compared (for each sample, n=3).
# [3] = test system: Wistar strain male rats; assay: Change of GH level in plasma over time after i.v. administration; type: in vivo, rat; conditions: 5 μg/head i.v.; for GH level in plasma, individual rats (Rat 1-5): listed as [Cys^3(Octyl)]-rat ghrelin
# Procedure: Physiological saline as the control and rat ghrelin (5 μg/head) were also administered and compared with Compound 18.
# [4] = test system: Wister male rats; assay: Cell growth: 3H-thymidine incorporation into bone marrow, duodenum, jejunum; type: in vivo, rat; conditions: 20 μg/kg i.v., 18 hours after administration
# Procedure: To examine the action of administered ghrelin on promotion of cell growth, the f ollowing experiment was conducted. Twenty μg/kg of rat ghrelin or thioether-type rat ghrelin (Compound 18 [Cys^3(octyl)]-hghrelin) was administered into tail veins of Wister male rats (7.5-week-old) respectively. Seventeen hours after administration, ^3H-thymidine was administered into tail veins, and 1 hour thereafter, duodenum, jejunum and bone marrow were excised. The incorporation of […] to DNA fractions of these tissues was measured in order to examine the cell growth-promoting action of ghrelin and ghrelin derivatives. The tissues were cut thin and homogenized using a Polytron homogenizer, and after centrifugation, the supernatant was precipitated with trichloroacetic acid to give a DNA fraction. The radioactivity of the DNA fraction was measured by a liquid scintillation counter.
# Numerical values show the ratio (%) of incorporation of radioisotope relative to the mean (in triplicate) of the comparative example (i.e. the group given physiological saline).
# [5] = test system: rat pituitary cultured cells; assay: Intracellular calcium change in primary anterior pituitary cells; type: cell-based; conditions: FIG. 5a
# [6] = test system: amino-terminal antibody (anti-[C-Cys]-rat ghrelin [1-11] antigen); assay: Radioimmunoassay: inhibition of binding of labeled rat ghrelin to amino-terminal antibody; design: species or system rabbit
# [7] = biological target: carboxyl-terminal antibody (anti-[C-Cys]-rat ghrelin [13-28] antigen); assay: Radioimmunoassay: inhibition of binding of labeled rat ghrelin to carboxyl-terminal antibody; design: species or system rabbit; conditions: FIG. 9b, amount per reaction tube
# Source text: Using antibodies raised against amino- and carboxyl-terminal rat ghrelin peptides as antigens, ghrelin in various living tissues was quantified by radioimmunoassay (RIA).
# Rabbits were immunized with [C-Cys]-rat ghrelin [1-11] (rat ghrelin peptide of amino acids 1 to 11 from amino-terminal having cysteine bound to the carboxyl-terminal thereof) and [C-Cys]-rat ghrelin [13-28] (rat ghrelinpeptideof aminoacids 13 to 28 from amino-terminal having cysteine bound to the carboxyl-terminal thereof) as antigens, to form amino-terminal antibody (anti-[C-Cys]-rat ghrelin [1-11] antigen) and carboxyl-terminal antibody (anti-[C-Cys]-rat ghrelin [13-28] antigen) respectively.
# That is, it was confirmed that the carboxyl-terminal antibodyhas the same affinity for ghrelin modified with fatty acid and for ghrelin from which fatty acid was released.
# T1 sequence (O08725 whole entry): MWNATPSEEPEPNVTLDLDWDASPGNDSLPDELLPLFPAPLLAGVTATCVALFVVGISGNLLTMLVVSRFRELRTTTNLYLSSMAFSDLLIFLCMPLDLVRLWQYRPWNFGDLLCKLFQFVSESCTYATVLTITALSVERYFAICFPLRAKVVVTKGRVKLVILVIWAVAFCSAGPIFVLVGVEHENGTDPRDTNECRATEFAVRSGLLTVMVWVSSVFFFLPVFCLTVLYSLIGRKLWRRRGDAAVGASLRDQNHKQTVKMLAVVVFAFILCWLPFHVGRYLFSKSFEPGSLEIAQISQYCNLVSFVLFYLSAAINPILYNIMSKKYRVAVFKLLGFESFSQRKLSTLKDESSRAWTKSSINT
smiles,measurement,setting,value
"CCCCCCCCSC[C@H](NC(=O)[C@H](CO)NC(=O)CN)C(=O)N[C@@H](Cc1ccccc1)C(=O)N[C@@H](CC(C)C)C(=O)N[C@@H](CO)C(=O)N1CCC[C@H]1C(=O)N[C@@H](CCC(=O)O)C(=O)N[C@@H](Cc1c[nH]cn1)C(=O)N[C@@H](CCC(N)=O)C(=O)N[C@@H](CCCCN)C(=O)N[C@@H](C)C(=O)N[C@@H](CCC(N)=O)C(=O)N[C@@H](CCC(N)=O)C(=O)N[C@@H](CCCNC(=N)N)C(=O)N[C@@H](CCCCN)C(=O)N[C@@H](CCC(=O)O)C(=O)N[C@@H](CO)C(=O)N[C@@H](CCCCN)C(=O)N[C@@H](CCCCN)C(=O)N1CCC[C@H]1C(=O)N1CCC[C@H]1C(=O)N[C@@H](C)C(=O)N[C@@H](CCCCN)C(=O)N[C@@H](CC(C)C)C(=O)N[C@@H](CCC(N)=O)C(=O)N1CCC[C@H]1C(=O)N[C@@H](CCCNC(=N)N)C(=O)O [Compound 18, [Cys^3(Octyl)]-rGhrelin]",EC50,"[1]; CHO-GHSR62 cells (CHO cells expressing rat GHS receptor), FLIPR, read-out: Ca-releasing activity EC50",5.4 nM
same,"GH level in plasma in 15 min. after administration, M ± S.D.","[2]; dose 30 nmol/kg i.v., n=3",2494 ± 253 ng/mL
same,"GH level in plasma in 15 min. after administration, individual rats (Rat 1-3)","[2]; dose 30 nmol/kg i.v., rats under Nembutal",2786 ng/mL and 2342 ng/mL and 2354 ng/mL
same,GH-releasing activity (in words),"[2]; i.v., plasma GH at 15 minutes",strong GH-releasing activity
same,"GH level in plasma, Mean ± S.D.",[3]; time 0 min,120 ± 146 ng/mL
same,"GH level in plasma, individual rats (Rat 1-5)",[3]; time 0 min,33 ng/mL and 32 ng/mL and 377 ng/mL and 101 ng/mL and 59 ng/mL
same,"GH level in plasma, Mean ± S.D.",[3]; time 5 min,450 ± 133 ng/mL
same,"GH level in plasma, individual rats (Rat 1-5)",[3]; time 5 min,530 ng/mL and 613 ng/mL and 338 ng/mL and 294 ng/mL and 476 ng/mL
same,"GH level in plasma, Mean ± S.D.",[3]; time 10 min,783 ± 324 ng/mL
same,"GH level in plasma, individual rats (Rat 1-5)",[3]; time 10 min,959 ng/mL and 1060 ng/mL and 687 ng/mL and 258 ng/mL and 949 ng/mL
same,"GH level in plasma, Mean ± S.D.",[3]; time 15 min,1093 ± 506 ng/mL
same,"GH level in plasma, individual rats (Rat 1-5)",[3]; time 15 min,1451 ng/mL and 1561 ng/mL and 927 ng/mL and 300 ng/mL and 1229 ng/mL
same,"GH level in plasma, Mean ± S.D.",[3]; time 20 min,1067 ± 445 ng/mL
same,"GH level in plasma, individual rats (Rat 1-5)",[3]; time 20 min,1299 ng/mL and 1359 ng/mL and 900 ng/mL and 358 ng/mL and 1417 ng/mL
same,"GH level in plasma, Mean ± S.D.",[3]; time 30 min,589 ± 229 ng/mL
same,"GH level in plasma, individual rats (Rat 1-5)",[3]; time 30 min,800 ng/mL and 726 ng/mL and 469 ng/mL and 245 ng/mL and 704 ng/mL
same,"GH level in plasma, Mean ± S.D.",[3]; time 60 min,132 ± 53 ng/mL
same,"GH level in plasma, individual rats (Rat 1-5)",[3]; time 60 min,220 ng/mL and 122 ng/mL and 98 ng/mL and 86 ng/mL and 133 ng/mL
same,"incorporation of 3H-thymidine relative to the mean of the physiological saline group, Bone marrow (in tissues)",[4],144.5%
same,"incorporation of 3H-thymidine relative to the mean of the physiological saline group, Duodenum (in DNA fraction)",[4],114.0%
same,"incorporation of 3H-thymidine relative to the mean of the physiological saline group, Jejunum (in DNA fraction)",[4],151.0%
"CC(C)C[C@H](NC(=O)[C@H](CCCCN)NC(=O)[C@H](C)NC(=O)[C@@H]1CCCN1C(=O)[C@@H]1CCCN1C(=O)[C@H](CCCCN)NC(=O)[C@H](CCCCN)NC(=O)[C@H](CO)NC(=O)[C@H](CCC(=O)O)NC(=O)[C@H](CCCCN)NC(=O)[C@H](CCCNC(=N)N)NC(=O)[C@H](CCC(N)=O)NC(=O)[C@H](CCC(N)=O)NC(=O)[C@H](C)NC(=O)[C@H](CCCCN)NC(=O)[C@H](CCC(N)=O)NC(=O)[C@H](Cc1c[nH]cn1)NC(=O)[C@H](CCC(=O)O)NC(=O)[C@@H]1CCCN1C(=O)[C@H](CO)NC(=O)[C@H](CC(C)C)NC(=O)[C@H](Cc1ccccc1)NC(=O)[C@H](CO)NC(=O)[C@H](CO)NC(=O)CN)C(=O)N[C@@H](CCC(N)=O)C(=O)N1CCC[C@H]1C(=O)N[C@@H](CCCNC(=N)N)C(=O)O [Compound 7, [Ser^3]-rat Ghrelin]",Ca-releasing activity (in words),[1]; CHO-GHSR62 cells,did not show a significant Ca-releasing activity
same,change in intracellular calcium ion concentration,[5],slightly increased Ca-releasing activity
same,reaction / affinity with the amino-terminal antibody (in words),[6],did not react
same,IC50 in binding between radioisotope-labeled rat ghrelin and the carboxyl-terminal antibody,[7],44 fmol
